Reference: patent US20260355323A1, “CEREBLON-RECRUITING BCL-XL/BCL-2 DUAL DEGRADERS” (University of Florida Research Foundation, Incorporated, priority 2022, published 2026)

What was measured:
[1] = test system: RS4;11 acute lymphoblastic leukemia cells; assay: Cell viability, tetrazolium-based MTS assay, RS4;11; conditions: Homo sapiens, RS4;11, 48 h, read-out: Anti-Cancer Activity EC50 (48 hr), RS4
Method: (§1) Acute lymphoblastic leukemia cells (MOLT-4 and RS4;11) were incubated with increasing concentrations of Bcl-xL/Bcl-2 degraders for 48 h. Cell viability was measured by tetrazolium-based MTS assay.

[2] = test system: MOLT-4 acute lymphoblastic leukemia cells; assay: Cell viability, tetrazolium-based MTS assay, MOLT-4; conditions: Homo sapiens, MOLT-4, 48 h; read-out: Anti-Cancer Activity EC50 (48 hr), MOLT-4
Method: as §1

[3] = test system: WI-38 NC; assay: Senolytic activity, cell viability (PrestoBlue HS), WI-38 NC; assay type: cell-based; conditions: Homo sapiens, 72 h
Method: WI-38 and HUVEC cells were incubated with increasing concentrations of degraders for 72 h. Cell viability was measured using PrestoBlue HS cell viability reagent.

For `C[C@@]1(CN2CCN(c3ccc4c(c3)CN(C3CCC(=O)NC3=O)C4=O)CC2)CCC(c2ccc(Cl)cc2)=C(CN2CCN(c3ccc(C(=O)NS(=O)(=O)c4ccc(N[C@H](CCN5CCCOCC5)CSc5ccccc5)c(S(=O)(=O)C(F)(F)F)c4)cc3)CC2)C1` (stereo partly drawn) [Compound 127, N-((4-(((R)-4-(1,4-oxazepan-4-yl)-1-(phenylthio)butan-2-yl)amino)-3-((trifluoromethyl)sulfonyl)phenyl)sulfonyl)-4-(4-(((4R)-4′-chloro-4-((4-(2-(2,6-dioxopiperidin-3-yl)-1-oxoisoindolin-5-yl)piperazin-1-yl)methyl)-4-methyl-3,4,5,6-tetrahydro-[1,1′-biphenyl]-2-yl)methyl)piperazin-1-yl)benzamide], the EC50 [1] was < 1 nM, the EC50 [2] was < 1 nM and the EC50 [3] was > 10000 nM.
`CC1CN(c2ccc3c(c2)CN(C2CCC(=O)NC2=O)C3=O)CC(C)N1CC1CN(C[C@]2(C)CCC(c3ccc(Cl)cc3)=C(CN3CCN(c4ccc(C(=O)NS(=O)(=O)c5ccc(N[C@H](CCN6CCCOCC6)CSc6ccccc6)c(S(=O)(=O)C(F)(F)F)c5)cc4)CC3)C2)C1` (stereo partly drawn) [Compound 129, N-((4-(((R)-4-(1,4-oxazepan-4-yl)-1-(phenylthio)butan-2-yl)amino)-3-((trifluoromethyl)sulfonyl)phenyl)sulfonyl)-4-(4-(((4R)-4′-chloro-4-((3-((4-(2-(2,6-dioxopiperidin-3-yl)-1-oxoisoindolin-5-yl)-2,6-dimethylpiperazin-1-yl)methyl)azetidin-1-yl)methyl)-4-methyl-3,4,5,6-tetrahydro-[1,1′-biphenyl]-2-yl)methyl)piperazin-1-yl)benzamide] was tested, and the EC50 [1] was < 1 nM, the EC50 [2] was < 1 nM and the EC50 [3] was > 10000 nM.
`C[C@@]1(CN2CCC(CN3CC4CC3CN4c3ccc4c(c3)CN(C3CCC(=O)NC3=O)C4=O)CC2)CCC(c2ccc(Cl)cc2)=C(CN2CCN(c3ccc(C(=O)NS(=O)(=O)c4ccc(N[C@H](CCN5CCCOCC5)CSc5ccccc5)c(S(=O)(=O)C(F)(F)F)c4)cc3)CC2)C1` (stereo partly drawn) [Compound 130, N-((4-(((R)-4-(1,4-oxazepan-4-yl)-1-(phenylthio)butan-2-yl)amino)-3-((trifluoromethyl)sulfonyl)phenyl)sulfonyl)-4-(4-(((4R)-4′-chloro-4-((4-((5-(2-(2,6-dioxopiperidin-3-yl)-1-oxoisoindolin-5-yl)-2,5-diazabicyclo[2.2.1]heptan-2-yl)methyl)piperidin-1-yl)methyl)-4-methyl-3,4,5,6-tetrahydro-[1,1′-biphenyl]-2-yl)methyl)piperazin-1-yl)benzamide] was tested, and the EC50 [1] was 1 to 10 nM, the EC50 [2] was 1 to 10 nM and the EC50 [3] was > 10000 nM.
For `C[C@@]1(CN2CC(CN3CC4CC3CN4c3ccc4c(c3)CN(C3CCC(=O)NC3=O)C4=O)C2)CCC(c2ccc(Cl)cc2)=C(CN2CCN(c3ccc(C(=O)NS(=O)(=O)c4ccc(N[C@H](CCN5CCCOCC5)CSc5ccccc5)c(S(=O)(=O)C(F)(F)F)c4)cc3)CC2)C1` (stereo partly drawn) [Compound 131, N-((4-(((R)-4-(1,4-oxazepan-4-yl)-1-(phenylthio)butan-2-yl)amino)-3-((trifluoromethyl)sulfonyl)phenyl)sulfonyl)-4-(4-(((4R)-4′-chloro-4-((3-((5-(2-(2,6-dioxopiperidin-3-yl)-1-oxoisoindolin-5-yl)-2,5-diazabicyclo[2.2.1]heptan-2-yl)methyl)azetidin-1-yl)methyl)-4-methyl-3,4,5,6-tetrahydro-[1,1′-biphenyl]-2-yl)methyl)piperazin-1-yl)benzamide], the EC50 [1] was 1 to 10 nM, the EC50 [2] was 1 to 10 nM and the EC50 [3] was > 10000 nM.
